Results published in patent US11331375B2, “Compositions and methods for regulating leukocyte adhesion” (University of Virginia Patent Foundation, priority 2015, dated 2022).

Assays:
[1] = tested on: paired mesenteric arterioles; assay: Ex vivo vascular perfusion ATP release assay, mesenteric arterioles; format: cell-based, mouse; settings: TNFα 50 ng/mL
Description: For isolated blood vessel experiments, 2nd order venules or arterioles were dissected from the mouse mesentery circulation and cannulated on glass micropipettes to access the vessel lumen. […] Vessels were then perfused with MOPS PSS containing 300 μM ARL 67156 +/− pharmacological inhibitors and incubated for an additional 20 minutes prior to perfusion with MOPS PSS containing recombinant murine TNFα (R&D Systems). Aliquots of the lumenal perfusate were collected every 5 minutes for a 25-minute period and the ATP concentration was quantified by bioluminescence as described above. Data are expressed as mean±SEM (n=4 independent experiments).

[2] = tested on: THP-1 monocyte adhesion to HUVEC; assay: Static adhesion assay, THP-1 monocytes on HUVEC; format: cell-based, human; settings: HUVEC monolayers activated with TNFα for 30 minutes
Description: HUVECs were seeded on gelatin-coated glass coverslips in 6-well plates and grown to confluence. On the day of the experiment, cells were washed 2× with 1× PBS and incubated for 30 minutes in basal EGM supplemented with 1% BSA in the presence or absence of pharmacological inhibitors. During this incubation period, human THP-1 monocytes were loaded with Calcein-AM (Invitrogen; 5 μg/mL) for 30 minutes at 37° C. Cells were then pelleted by brief centrifugation and excess calcein was removed by washing THP-1 cells 3 times in 1× PBS. Next, HUVECs were stimulated with TNFα (10 ng/mL) for 30 minutes. Following EC activation, calcein-loaded THP-1 monocytes were added to EC monolayers and incubated for 20 minutes at 37° C. to allow THP-1 to contact ECs. Monolayers were then washed 3× with 1× PBS and fixed in ice cold 4% PFA. Following fixation, coverslips were removed from the 6-well plates and mounted on glass microscope slides with Prolong Gold anti-fade mountant with DAPI (Life Technologies). Fluorescent micrographs were obtained at 10×magnification and the number of adherent THP-1 monocytes/ECs was quantified in 5 randomized regions/slide. Data are expressed as mean±SEM (n=3 independent experiments).

[3] = biological target: T1, Panx1 channels in HUVEC (Homo sapiens, UniProt Q96RD7); assay: YO-PRO-1 dye uptake assay; format: cell-based; settings: TNFα 30 minutes, dose dependent
T1 construct: Primary human umbilical vein endothelial cells (HUVEC) were purchased from Cell Applications; PromoCell 200K-05; C-12231; host or cells: HUVEC, HSaVEC (primary human venous endothelial cells)
Description: HUVECs were cultured on poly-L-lysine coated coverslips and grown to confluence in EGM. Cells were washed three times with 1× PBS and incubated in fresh EGM for 30 minutes prior to stimulation. To stimulate YO-PRO-1 dye uptake, YO-PRO-1 (1 μM) was added to the media and EC monolayers were treated with TNFα at a range of concentrations (0.1 ng/mL-100 ng/mL) for 30 minutes. At the end of the stimulation, cells were washed 3× with 1× PBS and immediately fixed in 4% PFA. Coverslips were then mounted on microscope slides with DAPI ProlongGold mounting agent and visualized on an Olympus IX81 laser scanning confocal microscope. Dye uptake was quantified as the intensity of YO-PRO-1 fluorescence over time using ImageJ software. For time course analysis, YO-PRO-1 was added to the culture media at various time points after TNFα stimulation and incubated to the 30-minute time point. Data are expressed as mean±SEM (n=3 independent experiments).

[4] = tested on: HSaVEC; assay: In vitro ATP release assay (luciferin:luciferase), HSaVEC; format: cell-based, human; settings: HSaVEC monolayers
Description: In vitro Human arterial and venous ECs were seeded in 24-well plates pre-coated with 0.2% gelatin and grown to confluency. On the day of experiment, the media was removed from each well and cells were carefully washed twice with warm serum free basal EC medium supplemented with 1% BSA. Cells were then incubated in 300 μL of fresh basal EC medium supplemented with 1% BSA for 30 minutes at 37° C. to allow degradation of extracellular ATP released due to mechanical stimulation during washes. Endogenous ecto-nucleotidases were inhibited by incubating EC monolayers with 300 μM ARL 67156 (Tocris) for 30 minutes at 37° C. Cells were then stimulated with recombinant human TNFα (R&D Systems). For dose response experiments, ECs were incubated with 0.1, 1, 5, 10, 50, or 100 ng/mL recombinant TNFα for 30 minutes at 37° C. For time-course experiments, ECs were stimulated with 10 ng/mL recombinant TNFα for different time points up to 1 hour. In experiments where pharmacological inhibitors were employed, ECs were incubated with antagonists in parallel with ARL 67156 for 30 minutes. To inhibit TNFR1, ECs were incubated with the peptide antagonist of the receptor WP9QY (10 μM; Anaspec). […] Cx hemichannels were inhibited with lanthanum (La^3+; 100 μM; Sigma) and Panx1 channels were blocked with carbenoxolone (CBX; 50 μM; Sigma) and the inhibitory peptide ^10panx1 (200 μM; Genscript). […] The role of caspase activation was assessed by inhibition with the pan-caspase blocker Q-VD-OPh (100 μM; Sigma). Following stimulation with TNFα or vehicle, 150 μL of the cell supernatant was collected and immediately placed into pre-chilled 1.5 mL Eppendorf tubes on ice. All samples were centrifuged at 10,000×g for 5 minutes and 50 μL of each sample was transferred to a white, opaque 96-well plate. Using a FluoStar Omega luminometer, 50 μL of luciferin:luciferase reagent (ATP bioluminescence assay kit HSII; Roche) was injected into each well and luminescence was recorded following a 5s orbital mix. ATP concentration in each sample was calculated from a standard curve for all experiments. Data are presented as a % change in ATP release from baseline (i.e. unstimulated cells) and expressed as mean±SEM (n=5 independent experiments with triplicate measurements).

T1 sequence (Q96RD7 whole entry): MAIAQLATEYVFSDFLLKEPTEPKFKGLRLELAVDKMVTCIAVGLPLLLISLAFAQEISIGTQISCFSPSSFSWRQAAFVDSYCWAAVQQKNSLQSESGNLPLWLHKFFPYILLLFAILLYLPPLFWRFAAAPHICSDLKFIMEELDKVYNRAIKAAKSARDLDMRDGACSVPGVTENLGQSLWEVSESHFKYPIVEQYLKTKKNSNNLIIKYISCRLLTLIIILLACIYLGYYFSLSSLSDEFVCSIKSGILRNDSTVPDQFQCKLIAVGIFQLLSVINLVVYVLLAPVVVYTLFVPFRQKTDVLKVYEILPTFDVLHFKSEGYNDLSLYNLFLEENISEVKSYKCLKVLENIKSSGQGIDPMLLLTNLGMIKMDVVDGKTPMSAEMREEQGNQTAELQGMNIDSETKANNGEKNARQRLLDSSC

Question: TNFα was tested. Which “ATP accumulation in the perfusate on cytokine perfusion” value [1] did it give?
Answer: absent

Question: What about the “increase of THP-1 monocyte adhesion” value [2] of the same substance?
Answer: ~4 fold

Question: What about the “intracellular YO-PRO-1 dye accumulation” value [3] of the same substance?
Answer: significant increase

Question: What about the “ATP release on cytokine stimulation” value [4] of the same substance?
Answer: significant increase
